Measured values published in patent EP0733369A1, “Protease inhibitors, a DNA construct for the expression of a protease and a process for measuring proteases and/or protease inhibitors” (Stichting REGA V.Z.W., priority 1995, dated 1996).
Entries after “also recorded” stand apart in the source; their conditions may differ. Where a name gives a salt, the structure may show the parent alone.

Assays:
[1] = molecular target: T1, gelatinase B from neutrophils (Homo sapiens, UniProt P14780); test: gelatinase (inhibitor) microtiter plate assay with biotinylated gelatin; format: biochemical; set-up: endogenous in cells; host or cells: human neutrophils stimulated with lipopolysaccharide; conditioned medium; conditions: for gelatinase B inhibitory activity in the plate assay (in words): qualitative statements
Method: The measurement of gelatinase activity was based on the detection of non-degraded biotinylated gelatin with a streptavidin-peroxidase conjugate. This test is based on the biotin-avidin method described by Sorbi et al. (25) but modified to a one plate assay (schematically represented in Fig. 1.). Gelatin (1mg/ml) was dissolved in 0.1 M sodium bicarbonate pH 8.3 by heating to 40°C. Biotin-N-hydroxysuccinimide ester was dissolved in dimethylsulfoxide (Me2SO) and was added to the gelatin in a 15-fold molar excess. The mixture was allowed to react overnight at 4°C and the biotinylated gelatin was then dialyzed against phosphate buffered saline (PBS). Neutrophil granulocyte (Neu) medium was collected from human neutrophils after stimulation with lipopolysaccharide (1µg/ml) overnight at 37°C in Minimal Essential Medium. Cells were removed by 10 min centrifugation at 1000 g. Purified gelatinase was obtained by one-step affinity chromatography of neutrophil medium on a gelatin-sepharose column as described (8).
Modified flat bottom 96-well ELISA plates were coated overnight with 0.5 µg/ml avidin in distilled water. The plates were then blocked with 0.3% bovine serum albumin (BSA, Sigma) in PBS for 1 hour at 37°C. Biotinylated gelatin was diluted to 50 µg/ml and 100µl was added to the avidin-coated wells. After incubation for one hour at 20°C, the plate was rinsed with PBS. Medium containing the secreted gelatinases from human neutrophils (dilution range 1/3-1/3^11) and the inhibitors were diluted in incubation buffer (50 mM Tris-HCl pH 7.5, 10 mM CaCl2, 0.02% (W/V) NaN3, 1% (V/V) Triton X-100) and 100 µl of each were mixed. 190 µl of the mixture was added to the gelatin-coated plates and allowed to digest the gelatin overnight at 37°C. The plates were then washed with PBS and each well was incubated with 100 µl peroxidase-conjugated-streptavidin at a 1:2000 dilution for 1 hour at 37°C. After rinsing the plate, the ABTS substrate was added (0.5 mg/ml solution containing 0.1 M citric acid, 0.2 M Na2HPO4, pH 4.3, 0.07 µl/ml 30% H2O2) and the optical density was read at 405 nm after 10 min. incubation at room temperature. Additional information on published test systems used here for comparison.
Gelatin is biotinylated and bound to avidin-coated microtiter plates. By addition of gelatinases the number of free biotin groups decreases and proportionally less streptavidin-peroxidase is bound to the residual substrate. Bound streptavidin-peroxidase activity is measured spectrophotometrically by reaction of peroxide with ABTS. Inhibition of gelatinase is obtained by the addition of inhibitor to a known amount of gelatinase prior to application to the plates. The peroxidase activity increases proportionally with the inhibitory activity.
Plates were first coated with 10µg/ml avidin and 50µg/ml biotinylated gelatin (theoretically saturating the avidin binding sites). As the sensitivity of the assay is dependent on the detection of the minimal amount of degraded biotinylated gelatin, we investigated wether decreasing the amount of biotin-gelatin (50 µg/ml-23 ng/ml) bound to the avidin-coated (10µg/ml) plate increased the sensitivity of the assay. […] Thus it was verified whether a decrease in the avidin coating could make the assay more sensitive (Fig. 2). […] In all further examples plates were coated with 0.5 µg/ml avidin and 50 µg/ml gelatin-biotin.
The titration curves of gelatinase inhibition were always related to a blanc curve and this for enzyme concentrations within the slope of the curve (vertical dotted lines Fig. 3). The decrease in enzyme activity to which the inhibitor-incubated sample corresponded was defined as the inhibition factor (IF).

[2] = molecular target: T1, gelatinase B from neutrophils; test: zymography inhibition assay, inhibitor in developing buffer; format: biochemical; set-up: The 92 kDa neutrophil gelatinase is indicated with an arrowhead; endogenous in cells; host or cells: human neutrophils; purified from conditioned medium on gelatin-Sepharose; conditions: qualitative statements
Method: Quantitative zymography was performed as described (7,8). Briefly, 40 µl of loading buffer was added to 40 µl of each sample and applied on 7.5% polyacrylamide gels which had been co-polymerised with 0.1% (w/v) gelatin. Stacking gels contained 5% polyacrylamide. The gels were run at 4°C for 16h at 90V. The gels were then incubated in washing buffer (50 mM Tris-HCl pH 7.5, 10mM CaCl2, O.O2% (W/V) NaN3, 2.5% (v/v) Triton X-100) at room temperature, 2x20 min to remove sodium dodecyl sulfate and overnight in developing buffer (50 mM Tris-HCl pH 7.5, 10mM CaCl2, O.O2% (w/v) NaN3, 1% (v/v) Triton X-100) at 37°C. The gels were then stained in Coomassie brilliant blue R-250 and destained in methanol/acetic acid. The sites of gelatinase activity appeared as unstained bands on a blue background and were quantified by computerised image analysis through scanning densitometry with a PDI scanner (Pharmacia, Belgium) and the PDI software package. For inhibition experiments, the inhibitors were dissolved in the developing buffer at the appropriate concentration. […] The enzyme activity was developed by staining of the substrate with Coomassie blue and quantification of the substrate digestion by scanning densitometry. […] The enzyme activity was developed by staining of the substrate with Coomassie blue and quantification of the substrate digestion by scanning densitometry. […]

[3] = tetracycline concentration 1.67 mg/ml
[4] = tetracycline concentration 3.33 mg/ml
[5] = tetracycline concentration 3.33 mg/ml, HCl
[6] = tetracycline concentration 0,83 mg/ml

T1 sequence (P14780 94-707): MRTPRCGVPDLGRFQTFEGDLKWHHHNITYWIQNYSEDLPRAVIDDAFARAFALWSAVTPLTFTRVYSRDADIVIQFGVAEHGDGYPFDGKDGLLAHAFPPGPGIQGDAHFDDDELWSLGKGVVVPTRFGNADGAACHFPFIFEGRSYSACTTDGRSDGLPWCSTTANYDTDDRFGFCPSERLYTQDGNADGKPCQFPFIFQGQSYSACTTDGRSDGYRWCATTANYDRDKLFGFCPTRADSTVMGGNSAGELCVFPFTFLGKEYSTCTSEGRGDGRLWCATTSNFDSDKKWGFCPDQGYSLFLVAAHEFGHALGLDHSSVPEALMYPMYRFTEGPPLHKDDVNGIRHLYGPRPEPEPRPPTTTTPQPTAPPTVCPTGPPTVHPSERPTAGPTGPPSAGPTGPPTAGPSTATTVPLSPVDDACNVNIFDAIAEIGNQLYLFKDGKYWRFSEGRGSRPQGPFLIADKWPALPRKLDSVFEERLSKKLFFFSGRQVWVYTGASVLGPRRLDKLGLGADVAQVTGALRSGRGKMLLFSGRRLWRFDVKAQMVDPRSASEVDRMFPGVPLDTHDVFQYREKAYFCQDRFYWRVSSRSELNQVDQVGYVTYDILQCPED

Row | Inhibition factor (IF) [1, 3] | Inhibition factor (IF) [1, 4] | gelatinase B inhibitory activity in the plate assay (in words) [1] | Inhibition factor (IF) [1, 6] | Molecule | also measured
1 | 3 | – | – | – | 4-epitetracycline HCl | –
2 | – | precipitation | – | – | 7-aminominocycline HCl | –
3 | – | – | less active | – | Cc1c2c(c(O)c3c(O)ccc(Cl)c13)C(=O)C1(O)C(O)=C(C(N)=O)C(=O)C(N(C)C)C1C2 (centres unmarked) [4-epianhydrochlortetracycline HCl] | Inhibition factor (IF) [1, 5]: 3
4 | 3 | precipitation | more active | 2 | Cc1c2c(c(O)c3c(O)cccc13)C(=O)C1(O)C(O)=C(C(N)=O)C(=O)C(N(C)C)C1C2 (centres unmarked) [4-epianhydrotetracycline HCl] | –
5 | 9 | precipitation | less active | 3 | CN(C)C1C(=O)C(C(N)=O)=C(O)C2(O)C(=O)C3=C(O)c4c(O)ccc(Cl)c4C(C)(O)C3CC12 (centres unmarked) [4-epichlortetracycline HCl] | –
6 | – | 3 | less active | – | CN(C)c1ccc(O)c2c1C[C@H]1C[C@H]3[C@@H](N(C)C)C(O)=C(C(N)=O)C(=O)[C@@]3(O)C(O)=C1C2=O [4-epiminocycline HCl] | –
7 | 3 | 20 | more active | – | CN(C)C1C(=O)C(C(N)=O)=C(O)C2(O)C(=O)C3=C(O)c4c(O)cccc4C(C)(O)C3C(O)C12 (centres unmarked) [4-epioxytetracyline base] | –
8 | – | – | – | – | Cc1c2c(c(O)c3c(O)ccc(Cl)c13)C(=O)C1(O)C(O)=C(C(N)=O)C(=O)C(N(C)C)C1C2 (centres unmarked) [anhydrochlortetracycline HCl] | Inhibition factor (IF) ([1]; tetracycline concentration 1.67 mg/ml, HCl): 2; Inhibition factor (IF) [1, 5]: 6
9 | 27 | 45 | – | 9 | CN(C)[C@@H]1C(O)=C(C(N)=O)C(=O)[C@@]2(O)C(O)=C3C(=O)c4c(O)ccc(Cl)c4[C@@](C)(O)[C@H]3C[C@@H]12 [chlortetracycline HCl] | gelatinase B inhibitory activity in the plate assay (in words) ([1]; listed as Chlortetracycline HCl, HCl): most potent inhibitor; gelatinase B inhibitory activity in the plate assay (in words) ([1]; listed as Chlortetracycline, HCl): more active as a gelatinase inhibitor than the antibiotically more potent minocycline; also recorded: much more active than tetracycline; also recorded: most active
10 | – | – | not active | – | CN(C)[C@@H]1C(O)=C(C(N)=O)C(=O)[C@@]2(O)C(O)=C3C(=O)c4c(O)ccc(Cl)c4[C@@H](O)[C@H]3C[C@@H]12 [demethylchlortetracycline HCl] | –
11 | – | – | not active | – | C[C@H]1c2cccc(O)c2C(=O)C2=C(O)[C@]3(O)C(=O)C(C(N)=O)=C(O)[C@@H](N(C)C)[C@@H]3[C@@H](O)[C@@H]21 [doxycycline hyclate] | –
12 | 8 | 27 | very active | 3 | C=C1c2cccc(O)c2C(=O)C2=C(O)[C@]3(O)C(=O)C(C(N)=O)=C(O)[C@@H](N(C)C)[C@@H]3[C@@H](O)[C@H]12 [metacycline HCl] | –
13 | 3 | 8 | – | – | CN(C)c1ccc(O)c2c1C[C@H]1C[C@H]3[C@H](N(C)C)C(O)=C(C(N)=O)C(=O)[C@@]3(O)C(O)=C1C2=O [minocycline HCl] | gelatinase B inhibitory activity in the plate assay (in words) ([1]; listed as minocyclin, HCl): active as an inhibitor; gelatinase B inhibitory activity in the plate assay (in words) ([1]; listed as minocycline, HCl): confirmed in the plate assay; also recorded: active; inhibition of gelatinase B on zymography (in words) [2]: inhibits gelatinase B in a dose-dependent way

Row | Molecule | Inhibition factor (IF) [1, 3] | Inhibition factor (IF) [1, 4] | gelatinase B inhibitory activity in the plate assay (in words) [1] | Inhibition factor (IF) [1, 6] | also measured
14 | CN(C)[C@@H]1C(O)=C(C(N)=O)C(=O)[C@@]2(O)C(O)=C3C(=O)c4c(O)cccc4C[C@H]3C[C@@H]12.Cl [6-deoxy-6-demethyltetracycline HCl] | 5 | 8 | – | 3 | –
15 | CN(C)[C@@H]1C(=O)C(C(N)=O)=C(O)[C@@]2(O)C(=O)C[C@@H]([C@]3(C)OC(=O)c4c(O)ccc(Cl)c43)C[C@@H]12 [isochlortetracycline HCl] | – | 3 | – | – | –
16 | CN(C)[C@@H]1C(O)=C(C(N)=O)C(=O)[C@@]2(O)C(O)=C3C(=O)c4c(O)cccc4[C@@](C)(O)[C@H]3C[C@@H]12 [tetracycline HCl] | 3 | 8 | – | – | –
